Laboratory results from patent US9854801B2, “Weed control from applications of an ethylene inhibitor and a pyridine carboxylic acid herbicide” (Dow AgroSciences LLC, priority 2015, dated 2018).
Values joined by “and” are separate entries in the source; they are usually repeats but may differ in a detail not shown here. Equal values may be shown once.

Tests used:
Assay type in all cases: in vivo
Conditions in all cases: 20-21 days after application
[1] = tested on: large crabgrass, Digitaria sanguinalis (L.) Scop. (DIGSA); assay: Foliar-applied greenhouse weed control, large crabgrass (DIGSA)
Procedure: (§1) The soil matrix was contained in plastic pots with a volume of 1 quart and a surface area of 83.6 cm^2. When required, to ensure good germination and healthy plants, a fungicide treatment and/or other chemical or physical treatment was applied. The plants were grown for 10-22 days in a greenhouse with an approximate 14 h photoperiod which was maintained at about 29° C. during the day and 26° C. during the night. Nutrients (Peters Excel® 15-5-15 5-Ca 2-Mg and iron chelate) were applied in the irrigation solution as needed and water was added on a regular basis. Supplemental lighting was provided with overhead metal halide 1000-Watt lamps as necessary. The plants were employed for testing when they reached the second or third true leaf stage. […] The compounds were applied on an active ingredient basis. […] All stock solutions and applications solutions were visually inspected for compound compatibility prior to application. […] Control plants were sprayed in the same manner with the solvent blank. The treated plants and control plants were placed in a greenhouse as described above and watered by sub-irrigation to prevent wash-off of the test compounds. […] Colby's equation was used to determine the herbicidal effects expected from the mixtures. The combinations tested, ratios employed, plant species tested, and results are included in Table 1 below.

[2] = tested on: ivyleaf morning glory, Ipomoea hederacea (L.) Jacq. (IPOHE); assay: Foliar-applied greenhouse weed control, ivyleaf morning glory (IPOHE)
Procedure: as §1

[3] = tested on: yellow nutsedge, Cyperus esculentus L. (CYPES); assay: Foliar-applied greenhouse weed control, yellow nutsedge (CYPES)
Procedure: as §1

[4] = tested on: junglerice, Echinochloa colonum (L.) LINK (ECHCO); assay: Foliar-applied greenhouse weed control, junglerice (ECHCO)
Procedure: as §1

[5] = tested on: barnyard grass, Echinochloa crus-galli (L.) P. Beauv. (ECHCG); assay: Foliar-applied greenhouse weed control, barnyard grass (ECHCG)
Procedure: as §1

CC1=CC1 [1-methylcyclopropene, reference compound]
1-methylcyclopropene % Visual Weed Control ([1]; 2 g ai/ha alone): 0% | 1-methylcyclopropene % Visual Weed Control ([1]; 4 g ai/ha alone): 0% | 1-methylcyclopropene % Visual Weed Control ([1]; 5 g ai/ha alone): 0% | 1-methylcyclopropene % Visual Weed Control ([1]; 10 g ai/ha alone): 0% | 1-methylcyclopropene % Visual Weed Control ([1]; 20 g ai/ha alone): 0% | 1-methylcyclopropene % Visual Weed Control ([2]; 2 g ai/ha alone): 0% | 1-methylcyclopropene % Visual Weed Control ([2]; 4 g ai/ha alone): 0% | 1-methylcyclopropene % Visual Weed Control ([2]; 5 g ai/ha alone): 0% | 1-methylcyclopropene % Visual Weed Control ([2]; 10 g ai/ha alone): 0% | 1-methylcyclopropene % Visual Weed Control ([3]; 5 g ai/ha alone): 0% | 1-methylcyclopropene % Visual Weed Control ([4]; 2 g ai/ha alone): 0% | 1-methylcyclopropene % Visual Weed Control ([4]; 4 g ai/ha alone): 0% | 1-methylcyclopropene % Visual Weed Control ([5]; 2 g ai/ha alone): 0% | 1-methylcyclopropene % Visual Weed Control ([5]; 4 g ai/ha alone): 0% | 1-methylcyclopropene % Visual Weed Control ([5]; 5 g ai/ha alone): 0% | 1-methylcyclopropene % Visual Weed Control ([5]; 10 g ai/ha alone): 0% | 1-methylcyclopropene % Visual Weed Control ([5]; 20 g ai/ha alone): 0%

COc1c(Cl)ccc(-c2nc(C(=O)OCc3ccccc3)c(Cl)c(N)c2F)c1F [Formula (II) benzyl ester, benzyl ester of 4-amino-3-chloro-5-fluoro-6-(4-chloro-2-fluoro-3-methoxy-phenyl) pyridine-2-carboxylic acid]
Formula (II) benzyl ester % Visual Weed Control ([1]; 8 g ai/ha alone): 13% and 20% | Formula (II) benzyl ester % Visual Weed Control ([1]; 16 g ai/ha alone): 23% and 28% | Formula (II) benzyl ester % Visual Weed Control ([1]; 32 g ai/ha alone): 30% and 33% | Formula (II) benzyl ester % Visual Weed Control ([2]; 16 g ai/ha alone): 18% and 25% | Formula (II) benzyl ester % Visual Weed Control ([2]; 32 g ai/ha alone): 35% and 48% | Formula (II) benzyl ester % Visual Weed Control ([3]; 8 g ai/ha alone): 70% | Formula (II) benzyl ester % Visual Weed Control ([3]; 16 g ai/ha alone): 88% | Formula (II) benzyl ester % Visual Weed Control ([3]; 32 g ai/ha alone): 73% | Formula (II) benzyl ester % Visual Weed Control ([4]; 8 g ai/ha alone): 50% | Formula (II) benzyl ester % Visual Weed Control ([4]; 16 g ai/ha alone): 50% | Formula (II) benzyl ester % Visual Weed Control ([4]; 32 g ai/ha alone): 80% | Formula (II) benzyl ester % Visual Weed Control ([5]; 8 g ai/ha alone): 40% and 63% | Formula (II) benzyl ester % Visual Weed Control ([5]; 16 g ai/ha alone): 63% and 78% | Formula (II) benzyl ester % Visual Weed Control ([5]; 32 g ai/ha alone): 83% and 90%
